Experimental data from PubChem BioAssay AID248 (DTP/NCI, 2004).
Several values for one entry are separate records, joined by “and”; a condition that tells them apart may be missing. Equal entries are not always repeated. Toxic doses and inconclusive results are not listed. Cut-off read from the data, not from the text of the source: active = T/C of 150% or more; inactive = T/C below 125%.

System: L1210 leukemia ip in BDF1 mice, survival T/C
Experiment: NCI In Vivo Anticancer Drug Screen. Data for tumor model L1210 Leukemia (intraperitoneal) in B6D2F1 (BDF1) mice
Conditions: endpoint: mean survival time, higher = longer survival
Summary of the method: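 Value reflects the ratio of survival in compound-treated mice to survival in vehicle-treated controls, with both groups carrying the same transplanted tumor.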

[1] = dose: 12.5 mg/kg/injection, schedule: Q04DX003 (ip), vehicle: saline
[2] = dose: 25.0 mg/kg/injection, schedule: Q04DX003 (ip), vehicle: saline
[3] = dose: 50.0 mg/kg/injection, schedule: Q04DX003 (ip), vehicle: saline
[4] = dose: 100.0 mg/kg/injection, schedule: Q04DX003 (ip), vehicle: saline

Measured: T/C

CN1CCN(CCCN2c3ccccc3Sc3ccc(C(F)(F)F)cc32)CC1
inactive: dose: 3.12 mg/kg/injection, schedule: Q01DX009 (ip), vehicle: saline 93 % of control | dose: 6.25 mg/kg/injection, schedule: Q01DX009 (ip), vehicle: saline 98 % of control and 104 % of control and 118 % of control | dose: 9.0 mg/kg/injection, schedule: Q04DX003 (ip), vehicle: saline with Tween-80 112 % of control | dose: 9.3 mg/kg/injection, schedule: Q01DX009 (ip), vehicle: saline 101 % of control | dose: 10.0 mg/kg/injection, schedule: Q01DX009 (ip), vehicle: saline with Tween-80 106 % of control | dose: 12.5 mg/kg/injection, schedule: Q01DX009 (ip), vehicle: saline 113 % of control and 106 % of control | [1] 102 % of control | dose: 15.0 mg/kg/injection, schedule: Q01DX009 (ip), vehicle: saline with Tween-80 101 % of control | dose: 18.0 mg/kg/injection, schedule: Q01DX001 (ip), vehicle: saline with Tween-80 104 % of control | dose: 18.0 mg/kg/injection, schedule: Q04DX003 (ip), vehicle: saline with Tween-80 117 % of control | dose: 18.7 mg/kg/injection, schedule: Q01DX009 (ip), vehicle: saline 114 % of control | dose: 18.75 mg/kg/injection, schedule: Q04DX003 (ip), vehicle: saline 106 % of control | dose: 20.0 mg/kg/injection, schedule: Q04DX003 (ip), vehicle: saline with Tween-80 111 % of control | dose: 22.0 mg/kg/injection, schedule: Q01DX009 (ip), vehicle: saline with Tween-80 118 % of control | dose: 25.0 mg/kg/injection, schedule: Q01DX009 (ip), vehicle: acetone 107 % of control | dose: 25.0 mg/kg/injection, schedule: Q01DX009 (ip), vehicle: saline with Tween-80 108 % of control | dose: 25.0 mg/kg/injection, schedule: Q01DX009 (ip), vehicle: saline 102 % of control and 109 % of control | dose: 25.0 mg/kg/injection, schedule: Q04DX003 (ip), vehicle: acetone 100 % of control | [2] 103 % of control [middle of 4 runs] | dose: 30.0 mg/kg/injection, schedule: Q04DX003 (ip), vehicle: saline with Tween-80 119 % of control | dose: 33.0 mg/kg/injection, schedule: Q01DX009 (ip), vehicle: saline with Tween-80 123 % of control | dose: 37.0 mg/kg/injection, schedule: Q01DX001 (ip), vehicle: saline with Tween-80 104 % of control | dose: 37.5 mg/kg/injection, schedule: Q04DX003 (ip), vehicle: saline 96 % of control | dose: 44.0 mg/kg/injection, schedule: Q04DX003 (ip), vehicle: saline with Tween-80 116 % of control | dose: 50.0 mg/kg/injection, schedule: Q01DX009 (ip), vehicle: acetone 120 % of control | dose: 50.0 mg/kg/injection, schedule: Q04DX003 (ip), vehicle: acetone 100 % of control | [3] 111 % of control [middle of 4 runs] | dose: 66.0 mg/kg/injection, schedule: Q04DX003 (ip), vehicle: saline with Tween-80 108 % of control | dose: 75.0 mg/kg/injection, schedule: Q01DX001 (ip), vehicle: saline with Tween-80 113 % of control | dose: 75.0 mg/kg/injection, schedule: Q04DX003 (ip), vehicle: saline with Tween-80 119 % of control | dose: 75.0 mg/kg/injection, schedule: Q04DX003 (ip), vehicle: saline 102 % of control | dose: 100.0 mg/kg/injection, schedule: Q01DX001 (ip), vehicle: saline 101 % of control | dose: 100.0 mg/kg/injection, schedule: Q01DX009 (ip), vehicle: acetone 113 % of control | dose: 100.0 mg/kg/injection, schedule: Q04DX003 (ip), vehicle: acetone 121 % of control | [4] 99 % of control and 112 % of control | dose: 150.0 mg/kg/injection, schedule: Q01DX001 (ip), vehicle: saline with Tween-80 90 % of control

COc1ccc(NC(=O)Oc2ccc3ccccc3c2)c(OC)c1
inactive: dose: 100.0 mg/kg/injection, schedule: Q04DX002 (ip), vehicle: Klucel (hydroxypropylcellulose) (HPC) 97 % of control | dose: 200.0 mg/kg/injection, schedule: Q04DX002 (ip), vehicle: Klucel (hydroxypropylcellulose) (HPC) 111 % of control | dose: 400.0 mg/kg/injection, schedule: Q04DX002 (ip), vehicle: Klucel (hydroxypropylcellulose) (HPC) 104 % of control

CCC(C)C(CN)(CCN(C)C)Cc1cccc2ccccc12 (centres undefined)
inactive: [1] 93 % of control | [2] 96 % of control | [3] 101 % of control

Cc1ccc(S(=O)(=O)n2cc[nH]c2=O)cc1
inactive: dose: 100.0 mg/kg/injection, schedule: Q01DX001 (ip), vehicle: Klucel (hydroxypropylcellulose) (HPC) 100 % of control | dose: 200.0 mg/kg/injection, schedule: Q01DX001 (ip), vehicle: Klucel (hydroxypropylcellulose) (HPC) 100 % of control | dose: 400.0 mg/kg/injection, schedule: Q01DX001 (ip), vehicle: Klucel (hydroxypropylcellulose) (HPC) 105 % of control

CCN(CCP(c1ccccc1)c1ccccc1)CCP(c1ccccc1)c1ccccc1
inactive: dose: 6.25 mg/kg/injection, schedule: Q01DX009 (ip), vehicle: Klucel (hydroxypropylcellulose) (HPC) 120 % of control | dose: 19.0 mg/kg/injection, schedule: Q01DX001 (ip), vehicle: other 120 % of control | dose: 25.0 mg/kg/injection, schedule: Q01DX009 (ip), vehicle: Klucel (hydroxypropylcellulose) (HPC) 122 % of control | dose: 25.0 mg/kg/injection, schedule: Q04DX003 (ip), vehicle: Klucel (hydroxypropylcellulose) (HPC) 106 % of control | dose: 38.0 mg/kg/injection, schedule: Q01DX001 (ip), vehicle: other 112 % of control | dose: 50.0 mg/kg/injection, schedule: Q01DX009 (ip), vehicle: Klucel (hydroxypropylcellulose) (HPC) 100 % of control and 117 % of control | dose: 50.0 mg/kg/injection, schedule: Q04DX003 (ip), vehicle: Klucel (hydroxypropylcellulose) (HPC) 116 % of control | dose: 100.0 mg/kg/injection, schedule: Q01DX009 (ip), vehicle: Klucel (hydroxypropylcellulose) (HPC) 111 % of control | dose: 100.0 mg/kg/injection, schedule: Q04DX003 (ip), vehicle: Klucel (hydroxypropylcellulose) (HPC) 122 % of control

CS(=N)(=O)c1ccccc1 (centres undefined)
inactive: dose: 100.0 mg/kg/injection, schedule: Q01DX009 (ip), vehicle: other 99 % of control | [4] 97 % of control | dose: 200.0 mg/kg/injection, schedule: Q01DX009 (ip), vehicle: other 95 % of control | dose: 200.0 mg/kg/injection, schedule: Q04DX003 (ip), vehicle: saline 100 % of control | dose: 400.0 mg/kg/injection, schedule: Q01DX009 (ip), vehicle: other 97 % of control | dose: 400.0 mg/kg/injection, schedule: Q04DX003 (ip), vehicle: saline 97 % of control

CCC(Cl)COP(=O)(OCC(Cl)CC)C(OP(=S)(OCC(Cl)CC)OCC(Cl)CC)c1ccc(Cl)c(Cl)c1 (centres undefined)
inactive: dose: 25.0 mg/kg/injection, schedule: Q04DX002 (sc), vehicle: olive oil, sesame oil, peanut oil 123 % of control | dose: 50.0 mg/kg/injection, schedule: Q04DX002 (sc), vehicle: olive oil, sesame oil, peanut oil 108 % of control | dose: 100.0 mg/kg/injection, schedule: Q04DX002 (sc), vehicle: olive oil, sesame oil, peanut oil 118 % of control

CC(C)(C)C(O)c1ccccc1 (centres undefined)
inactive: dose: 25.0 mg/kg/injection, schedule: Q04DX002 (ip), vehicle: saline with Tween-80 97 % of control | dose: 50.0 mg/kg/injection, schedule: Q04DX002 (ip), vehicle: saline with Tween-80 93 % of control | dose: 100.0 mg/kg/injection, schedule: Q04DX002 (ip), vehicle: saline with Tween-80 93 % of control and 92 % of control | dose: 200.0 mg/kg/injection, schedule: Q04DX002 (ip), vehicle: saline with Tween-80 93 % of control and 95 % of control | dose: 400.0 mg/kg/injection, schedule: Q04DX002 (ip), vehicle: saline with Tween-80 95 % of control

O=C(CI)OCC#CCOC(=O)CI
inactive: dose: 12.5 mg/kg/injection, schedule: Q01DX001 (ip), vehicle: carboxymethylcellulose (CMC) 98 % of control | dose: 12.5 mg/kg/injection, schedule: Q01DX009 (ip), vehicle: carboxymethylcellulose (CMC) 90 % of control and 92 % of control | dose: 12.5 mg/kg/injection, schedule: Q04DX002 (ip), vehicle: carboxymethylcellulose (CMC) 104 % of control and 110 % of control | dose: 12.5 mg/kg/injection, schedule: Q04DX003 (ip), vehicle: carboxymethylcellulose (CMC) 95 % of control | dose: 25.0 mg/kg/injection, schedule: Q01DX001 (ip), vehicle: carboxymethylcellulose (CMC) 103 % of control | dose: 25.0 mg/kg/injection, schedule: Q01DX009 (ip), vehicle: carboxymethylcellulose (CMC) 86 % of control | dose: 25.0 mg/kg/injection, schedule: Q04DX002 (ip), vehicle: carboxymethylcellulose (CMC) 98 % of control | dose: 25.0 mg/kg/injection, schedule: Q04DX003 (ip), vehicle: carboxymethylcellulose (CMC) 103 % of control | dose: 50.0 mg/kg/injection, schedule: Q01DX001 (ip), vehicle: carboxymethylcellulose (CMC) 92 % of control | dose: 50.0 mg/kg/injection, schedule: Q04DX002 (ip), vehicle: carboxymethylcellulose (CMC) 97 % of control and 103 % of control | dose: 50.0 mg/kg/injection, schedule: Q04DX003 (ip), vehicle: carboxymethylcellulose (CMC) 94 % of control
